According to US12077501B2, “Compounds and compositions for intracellular delivery of agents” (ModernaTX, Inc., priority 2017, dated 2024):

Tests used:
[1] = tested on: hEPO; experiment: hEPO expression in rats after i.v. administration of nanoparticle compositions (FIGS. 8A, 8B); type: in vivo, rat; conditions: rats, 2 mpk, i.v. administration (FIG. 8A)
Text: PBS (phosphate buffered saline) is used as control. FIG. 8A compares the hEPO concentration after administration of nanoparticle compositions containing Compound 23, Compound 11, KL22, and MC3 at 2 mpk, i.v. administration. […] FIG. 8B illustrates the results of a dose response study using Compound 20, KL22, and MC3 at dose of 0.2, 0.5 and 1 mpk. […] In FIG. 8A, the numbers 1-5 refer to compositions containing the following: 1: Compound 23, 2: Compound 11, 3: KL22; 4: MC3; 5: PBS. In FIG. 8B, the numbers […] refer to compositions containing the following: 1: Compound 20, 0.2 mpk; 2: Compound 20, 0.5 mpk; 3: Compound 20, 1 mpk; 4: KL22, 0.2 mpk; 5: KL22, 0.5 mpk; 6: KL22, 1 mpk; 7: MC3, 0.2 mpk; 8: MC3, 0.5 mpk; 9: MC3, 1 mpk; 10: PBS.

[2] = tested on: LDL-c; experiment: LDL-c levels in LDLR knockout mice after mRNA encoding the LDL receptor (FIG. 9B); type: in vivo, mouse; conditions: mRNAs encoding the LDL receptor, Compound 11 at 0.5 and 1 mpk (FIG. 9B)
[3] = tested on: luciferase; experiment: Luciferase expression in LDLR −/− knockout and wild-type mice (FIG. 9A); type: in vivo, mouse; conditions: 0.05 mpk, 0.25 mpk and 0.5 mpk (FIG. 9A)
Text: FIG. 9A is a bar graph showing expression of luciferase induced by administration of nanoparticle compositions including Compound 11 at dosages of 0.05 mpk, 0.25 mpk, and 0.5 mpk to LDLR −/− knockout and wild-type mice.

[4] = tested on: rats; experiment: Tolerability / toxicity in rats (FIGS. 8A, 8B); type: in vivo; conditions: 2 mpk, i.v. (FIG. 8A), compared to KL22
[5] = tested on: hEPO expression; experiment: Expression of hEPO in rats induced by nanoparticle compositions; type: in vivo, S.D. rats; conditions: rats, 3, 6 and 24 hours
Procedure: Formulations were administered intravenously, subcutaneously or intramuscularly to rats (n=3 or 6) at a dosage of 0.2 mg/kg or 0.5 mg/kg (mpk) and hEPO levels measured at 3, 6, and 24 hour time points. After the 48 hour time point, livers and spleens were harvested and frozen.
(§1) In contrast, hEPO expression in rats induced by administration of a nanoparticle composition including a compound according to one of formulae (I), (Ia1)-(Ia6), (Ib), (II), (IIa), (III), and (IIIa) was substantially […] than that measured for MC3. […] Tables 7c and 7d show additional protein expressions and clearance data from compositions with various compounds disclosed herein as compared to with MC3. Tables 7e, 7f and 7g show hEPO expression data in CD-1 mice at a dose of 0.5 mpk.

[6] = tested on: luciferase expression; experiment: Expression of Luc in different organs (liver, lung, spleen, femur), bioluminescence; type: in vivo; conditions: mice, intravenous, 0.5 mpk, 6 hours
Procedure: The efficacy of the nanoparticle compositions presented in Tables 1, la, 17-1, 19-1, 20-1 and 21-1 was further evaluated by measuring the expression of modified luciferase in the liver, lung, spleen, and femur upon administration of a given composition. Formulations were administered intravenously to mice (n=3) at a dosage of 0.5 mpk and bioluminescence measured after 6 hours. The standard MC3 formulation and a PBS control were also tested.

[7] = Purity at start and after storage for 65 h at 25 °C or 37 °C; type: physicochemical
[8] = Encapsulation efficiency of RNA (QUANT-IT RIBOGREEN RNA assay); type: physicochemical
How it was run: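 RiboGreen fluorescence (ex about 480, em about 520 nm) compares nanoparticle samples left intact versus disrupted with 2% Triton X-100 (15 min, 37° C). Samples are first brought to roughly 5 μg/mL in 10 mM Tris-HCl, 1 mM EDTA, pH 7.5; percent free RNA equals the blank-corrected intact/disrupted signal ratio.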

[9] = tested on: hEPO expression; experiment: hEPO (miR126 + miR142) mRNA expression, Tables 8b-8e; type: in vivo
[10] = Lipid clearance: % dose remaining, Tables 7c and 8b-8e (species not given); type: in vivo
Text: as §1

[11] = Particle size and polydispersity index of nanoparticle compositions (Zetasizer Nano ZS); type: physicochemical
Procedure: A Zetasizer Nano ZS (Malvem Instruments Ltd, Malvem, Worcestershire, UK) can be used to determine the particle size, the polydispersity index (PDI) and the zeta potential of the nanoparticle compositions in 1×PBS in determining particle size and 15 mM PBS in determining zeta potential.

[12] = tested on: hEPO expression; experiment: hEPO expression in CD-1 mice compared with MC3; type: in vivo
How it was run: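 CD-1 mice, 0.5 mpk dose of test-compound nanoparticle formulation; hEPO protein expression read out; clearance data also recorded.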

[13] = tested on: hepatocytes and Kupffer cells; experiment: Mouse liver immunohistochemistry (IHC) with GFP mRNA (FIGS. 11A, 11B); type: in vivo; conditions: CD-1 mouse liver, 6h after intravenous administration, 0.5 mpk (FIG. 11A)
Text: FIGS. 11A and 11B are a pair of images comparing the results of a mouse liver immunohistochemistry (IHC) using mRNA expressing green fluorescent protein (GFP) after administration of nanoparticle compositions containing Compound 4 and MC3.

[14] = Lipid clearance: % dose remaining in liver of CD-1 mice; type: in vivo; conditions: intravenous, 0.5 mg/kg, CD-1 mouse, Table 8a
How it was run: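 Expression in CD-1 mice after 0.5 mpk hEPO dosing is included. Lipid clearance is given as % of dose left in CD-1 mouse liver and expression as AUC (p/s*h). All follow intravenous delivery of nanoparticle formulations, with MC3 as reference.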

[15] = Table 1f, Formulated with lipid:Chol:DOPE:PEG 1 40:38.5:20:1.5
[16] = Table 1e, row marked #: Formulated with lipid:Chol:PEG 1 50:47.5:2.5
[17] = Table 1f, row marked #: Formulated with lipid:Chol:PEG 1 50:47.5:2.5
[18] = Table 1d, row marked #: Formulated with lipid:Chol:PEG 1 50:47.5:2.5

Structure (SMILES)	EE (%) [8, 15]	AUC ([9]; Table 8d)	% Dose Remaining (liver, 24 h) ([10]; Table 8d)	PDI [11, 15]	Size (nm) [11, 15]	further results
CCCCCCCCCCCCN(CCCCCCCCCCCC)CCN(CCCCCCCCCCCC)CC(=O)N1CCN(C(=O)CN(CCCCCCCCCCCC)CCCCCCCCCCCC)CC1 [Compound 11, 2-(Didodecylamino)-1-(4-(N-(2-(didodecylamino)ethyl)-N-dodecylglycyl)piperazin-1-yl)ethan-1-one]	–	–	–	–	–	hEPO concentration after administration of nanoparticle compositions [1]: comparable to MC3; LDL-c levels [2]: found to drop; LDLr dependence of luciferase expression [3]: LDLr independent lipid; tolerability [4]: improved tolerability as compared to KL22
CCCCCCCCCCCCN(CCCCCCCCCCCC)CCN(CCCCCCCCCCCC)CCN1CCN(CCN(CCCCCCCCCCCC(=O)OC)CCCCCCCCCCCC(=O)OC)CC1 [Compound 16, Dimethyl 12,12′-((2-(4-(2-((2-(didodecylamino)ethyl)(dodecyl)amino)ethyl)piperazin-1-yl)ethyl)azanediyl)didodecanoate]	–	–	–	–	–	hEPO expression at each time point, rank among compositions of Table 6 [5]: lowest hEPO expression
CCCCCCCCCCCCCCN(CCCCCCCCCCCCCC)CCN1CCN(CCN(CCCCCCCCC)CCN(CCCCCCCCC)CCCCCCCCC)CC1 [Compound 20, N^1-(2-(4-(2-(Ditetradecylamino)ethyl)piperazin-1-yl)ethyl)-N^1,N^2,N^2-trinonylethane-1,2-diamine]	–	–	–	–	–	total flux, rank among the compositions of Table 3 [6]: highest total flux
CCCCCCCCCN(CCCCCCCCC)CCN(CCCCCCCCC)CC(=O)N1CCN(C(=O)CN(CCCCCCCCC)CCCCCCCC(=O)OC)CC1 [Compound 44, Methyl 8-((2-(4-(N-(2-(dinonylamino)ethyl)-N-nonylglycyl)piperazin-1-yl)-2-oxoethyl)(nonyl)amino)octanoate]	–	–	–	–	–	Purity % 25° C. no shaking t = 65 h ([7]; after storage for 65 h at 25° C., no shaking): 92%; Purity % 37° C. shaking t = 65 h ([7]; after storage for 65 h at 37° C., shaking): 91%; Purity % t = 0 h ([7]; beginning of the study, 25° C.): 90%
CCCCCCCCCOC(=O)CCCCCCCN(CCCCCCCC(=O)OC(CCCCCCCC)CCCCCCCC)CCCCC(=O)N1CCN(C(=O)CCCCN(CCCCCCCC(=O)OCCCCCCCCC)CCCCCCCC(=O)OC(CCCCCCCC)CCCCCCCC)CC1 [Compound 184, Di(heptadecan-9-yl) 8,8′-((piperazine-1,4-diylbis(5-oxopentane-5,1-diyl))bis((8-(nonyloxy)-8-oxooctyl)azanediyl))dioctanoate]	99.1%	4.21e+08 pg·h/mL	2.23%	Multimodal	107.6 nm	–
CCCCCCCCCOC(=O)CCCCCCCN(CCCCCCCC(=O)OC(CCCCCCCC)CCCCCCCC)CCCCC(=O)OCCOC(=O)CCCCN(CCCCCCCC(=O)OCCCCCCCCC)CCCCCCCC(=O)OC(CCCCCCCC)CCCCCCCC [Compound 185, Di(heptadecan-9-yl) 8,8′-(11,24,29,42-tetraoxo-10,25,28,43-tetraoxa-19,34-diazadopentacontane-19,34-diyl)dioctanoate]	98.6%	2.23e+07 pg·h/mL	18.21%	0.27	98.4 nm	–
CCCCCCCCCOC(=O)CCCCCCCN(CCCCCCCC(=O)OC(CCCCCCCC)CCCCCCCC)CCCCC(=O)OC(C)C(C)OC(=O)CCCCN(CCCCCCCC(=O)OCCCCCCCCC)CCCCCCCC(=O)OC(CCCCCCCC)CCCCCCCC (stereo not shown) [Compound 186, Di(heptadecan-9-yl) 8,8′-(26,27-dimethyl-11,24,29,42-tetraoxo-10,25,28,43-tetraoxa-19,34-diazadopentacontane-19,34-diyl)dioctanoate]	98.2%	2.19e+07 pg·h/mL	49.08%	0.21	111.5 nm	–
CCCCCCCCCOC(=O)CCCCCCCN(CCCCCCCC(=O)OC(CCCCCCCC)CCCCCCCC)CCCCC(=O)OC(C)CC(C)OC(=O)CCCCN(CCCCCCCC(=O)OCCCCCCCCC)CCCCCCCC(=O)OC(CCCCCCCC)CCCCCCCC (stereo not shown) [Compound 187, Di(heptadecan-9-yl) 8,8′-(26,28-dimethyl-11,24,30,43-tetraoxo-10,25,29,44-tetraoxa-19,35-diazatripentacontane-19,35-diyl)dioctanoate]	98.5%	5.22e+07 pg·h/mL	42.86%	0.20	126.0 nm	–
CCCCCCCCCN(CCCCCCCCC)CCN(CCCCCCCCC)CC(=O)OC(C)C(C)OC(=O)CN(CCCCCCCCC)CCCCCCCCC (stereo not shown) [Compound 188, 3-((N-(2-(dinonylamino)ethyl)-N-nonylglycyl)oxy)butan-2-yl dinonylglycinate]	97.5%	8.76e+06 pg·h/mL	117.31%	0.12	78.0 nm	–
CCCCCCCCCN(CCCCCCCCC)CCN(CCCCCCCCC)CC(=O)OC(C)CC(C)OC(=O)CN(CCCCCCCCC)CCCCCCCCC (stereo not shown) [Compound 189, 4-((N-(2-(Dinonylamino)ethyl)-N-nonylglycyl)oxy)pentan-2-yl dinonylglycinate]	98.3%	1.15e+07 pg·h/mL	91.63%	0.16	70.1 nm	–
CCCCCC=CCC=CCCCCCCCCC(CCCCCCCCC=CCC=CCCCCC)OC(=O)CCCN(C)C (stereo not shown) [MC3, heptatriaconta-6,9,28,31-tetraen-19-yl 4-(dimethylamino)butanoate, reference compound]	–	6.95e+08 pg·h/mL	54.04%	–	–	EE (%) [8, 16]: 93.0%; EE (%) [8, 17]: 92.5%; EE (%) [8, 18]: 84.1%; AUC (p/s*h) CD-1 mice 0.5 mpk ([12]; intramuscular, title: 0.01 mg/kg, Table 7f): 27727 p/s*h; AUC (p/s*h) CD-1 mice 0.5 mpk ([12]; subcutaneous, 0.5 mg/kg, Table 7g): 375994 p/s*h; AUC ([9]; Table 8c): 1.52e+07 pg·h/mL; AUC (mIU/mL*h) ([9]; lipid:Chol:PEG 1 50:47.5:2.5, Table 8e): 2.24E+07 mIU/mL*h; % Dose Remaining (liver, 24 h) ([10]; Table 8c): 58.41%; PDI [11, 16]: 0.22; Size (nm) [11, 16]: 109.0 nm; PDI [11, 17]: 0.26; Size (nm) [11, 17]: 129.7 nm; PDI [11, 18]: 0.20; Size (nm) [11, 18]: 105.0 nm; GFP protein expression in liver cell types (IHC) [13]: observed in both hepatocytes and Kupffer cells; hEPO expression at each time point, rank among compositions of Table 6 [5]: highest hEPO expression; % Dose Remaining 24 hr [14]: 64.65%
